Results published in patent US11723890B2, “Methods of treatment using an mTORC1 modulator” (Navitor Pharmaceuticals, Inc., priority 2019, dated 2023).
Entries after “also recorded” stand apart in the source; their conditions may differ. Marks after values point to notes of the source that are not given here.

What was measured:
healthy volunteers = assay: Example 1 Part A: safety and tolerability of single ascending doses in healthy volunteers
Text: Up to approximately 48 healthy volunteers were randomly assigned to double-blind treatment. […] The in-house period was 6 days/5 nights. The duration of each subject's participation was up to 39 days, including screen/washout and follow-up.
The study included standard safety and tolerability assessments—e.g., physical, neurological, and psychiatric examinations, vital signs, oral temperature, respiration rate, weight, 12-lead paper electrocardiograms (pECGs), dECGs, clinical laboratory tests, monitoring of adverse events (AEs) and concomitant medications, and, in Part A of the study, cardiovascular (CV) telemetry and safety EEGs.
Subjects were required to abstain from eating or drinking for two hours prior to and after dosing. • Subjects randomized to receive placebo (purified water and Flavor Sweet-SF™): Single dose placebo was administered orally as a solution on Day 1. Subjects were required to abstain from eating or drinking for two hours prior to and after dosing.
An AE is any unfavorable and unintended sign (including an abnormal laboratory finding), symptom, or disease temporally associated with the use of a medical treatment or procedure, whether or not considered related to the medical treatment or procedure. […] An AE term is a unique representation of a specific event used for medical documentation and scientific analyses.
A TEAE is an AE that either commenced following initiation of study treatment or was present prior to study treatment but increased in frequency or severity following initiation of study treatment.

[1] = tested on: CSF neurotransmitter metabolites; assay: Example 2: CSF neurotransmitter metabolomics after a single dose; assay type: in vivo, human; conditions: healthy males; for 1-methyl-4-imidazoleacetate, CSF, ratio relative to baseline / Carboxyethyl-GABA, CSF, ratio relative to baseline / Homovanillate (HVA), CSF, ratio relative to baseline / Hydroxyindoleacetic acid (HIAA), CSF, ratio relative to baseline: single 2400 mg, n = 12
Text: Exploratory Objective(s): The exploratory objectives of this study were as follows using CSF and plasma samples collected over the same time frame as the PK samples: • conducted unbiased metabolomic analysis using validated methods as described: https://www.metabolon.com/what-we-do/our-technology. • conducted unbiased proteomic analysis using validated methods as described: https://www.biognosys.com/technology. Study Endpoints:
This study was a Phase 1, double-blind, placebo-controlled, single-dose study to evaluate the PK, metabolomic, and proteomic profiles of compound A in plasma and CSF in healthy male subjects between the ages of 18 and 55 years. […] Once eligibility criteria were met and the ICF had been signed, subjects were admitted to the CRU on Day-1. On Day 1, intradural and venous catheters were inserted and subjects were randomly assigned to double-blind treatment with a single oral 2400 mg dose of compound A or placebo. The catheter insertion site was assessed on regular basis for early signs of local infection or CSF leakage. Time-matched CSF and blood samples were then collected for 36 hours, after which, the intradural and venous catheters were removed. See FIG. 7 for the study flow chart.
Pharmacokinetic, Metabolomic, and Proteomic Variables: Blood and CSF samples for the PK, metabolomics, and proteomic analysis of compound A were collected at various time points and were processed and analyzed by a validated method for determining concentrations of compound A.
Low CSF concentrations of HVA have been reported to be a marker of depressive symptoms. […] Values represent the ratio of metabolite concentrations for each time point relative to baseline. An increase from baseline is indicated with a single asterisk (*).

[2] = tested on: N-methyl-D-aspartate (NMDA) receptor; assay: Nonclinical NMDA receptor modulation / antagonist activity; conditions: nonclinical studies
Text: Compound A [(S)-2-amino-5,5-difluoro-4,4-dimethylpentanoic acid] is a novel, orally bioavailable, specific, small molecule that activates mTORC1 pathway signaling in the brain, including those centers responsible for mood.
NMDA antagonists, in particular ketamine, are associated with mental status changes that have similarity to psychotic or dissociative symptoms seen in psychiatric disorders.

CC(C)(C[C@H](N)C(=O)O)C(F)F [Compound A, (S)-2-amino-5,5-difluoro-4,4-dimethylpentanoic acid]
Number of subjects with ≥1 TEAE (healthy volunteers; all doses Total, N = 36): 13 (36.1) n (%) | TEAE: Abdominal pain (healthy volunteers; all doses Total, N = 36): 1 n (%) | TEAE: Abdominal pain lower (healthy volunteers; all doses Total, N = 36): 1 n (%) | TEAE: Blood creatine phosphokinase increased (healthy volunteers; all doses Total, N = 36): 1 n (%) | TEAE: Dermatitis contact (healthy volunteers; all doses Total, N = 36): 3 n (%) | TEAE: Diarrhea (healthy volunteers; all doses Total, N = 36): 1 n (%) | TEAE: Dizziness (healthy volunteers; all doses Total, N = 36): 4 n (%) | TEAE: Dry mouth (healthy volunteers; all doses Total, N = 36): 1 n (%) | TEAE: Headache (healthy volunteers; all doses Total, N = 36): 2 n (%) | TEAE: Hot flush (healthy volunteers; all doses Total, N = 36): 1 n (%) | TEAE: Lipase increased (healthy volunteers; all doses Total, N = 36): 1 n (%) | TEAE: Nausea (healthy volunteers; all doses Total, N = 36): 3 n (%) | TEAE: Presyncope (healthy volunteers; all doses Total, N = 36): 1 n (%) | TEAE: Somnolence (healthy volunteers; all doses Total, N = 36): 1 n (%) | TEAE: Vomiting (healthy volunteers; all doses Total, N = 36): 1 n (%) | Total number of TEAEs (healthy volunteers; all doses Total, N = 36): 22 n (%) | Number of subjects with ≥1 TEAE (healthy volunteers; single oral 150 mg, N = 6): 2 (33.3) n (%) | TEAE: Abdominal pain lower (healthy volunteers; single oral 150 mg, N = 6): 1 n (%) | TEAE: Dizziness (healthy volunteers; single oral 150 mg, N = 6): 1 n (%) | Total number of TEAEs (healthy volunteers; single oral 150 mg, N = 6): 3 n (%) | Number of subjects with ≥1 TEAE (healthy volunteers; single oral 300 mg, N = 6): 2 (33.3) n (%) | TEAE: Blood creatine phosphokinase increased (healthy volunteers; single oral 300 mg, N = 6): 1 n (%) | TEAE: Lipase increased (healthy volunteers; single oral 300 mg, N = 6): 1 n (%) | Total number of TEAEs (healthy volunteers; single oral 300 mg, N = 6): 2 n (%) | Number of subjects with ≥1 TEAE (healthy volunteers; single oral 600 mg, N = 6): 1 (16.7) n (%) | TEAE: Dizziness (healthy volunteers; single oral 600 mg, N = 6): 1 n (%) | TEAE: Presyncope (healthy volunteers; single oral 600 mg, N = 6): 1 n (%) | Total number of TEAEs (healthy volunteers; single oral 600 mg, N = 6): 1 n (%) | Number of subjects with ≥1 TEAE (healthy volunteers; single oral 1000 mg, N = 6): 1 (16.7) n (%) | TEAE: Dizziness (healthy volunteers; single oral 1000 mg, N = 6): 1 n (%) | Total number of TEAEs (healthy volunteers; single oral 1000 mg, N = 6): 1 n (%) | Number of subjects with ≥1 TEAE (healthy volunteers; single oral 1600 mg, N = 6): 4 (66.7) n (%) | TEAE: Abdominal pain (healthy volunteers; single oral 1600 mg, N = 6): 1 n (%) | TEAE: Dermatitis contact (healthy volunteers; single oral 1600 mg, N = 6): 2 n (%) | TEAE: Diarrhea (healthy volunteers; single oral 1600 mg, N = 6): 1 n (%) | TEAE: Dizziness (healthy volunteers; single oral 1600 mg, N = 6): 2 n (%) | TEAE: Dry mouth (healthy volunteers; single oral 1600 mg, N = 6): 1 n (%) | TEAE: Headache (healthy volunteers; single oral 1600 mg, N = 6): 1 n (%) | TEAE: Nausea (healthy volunteers; single oral 1600 mg, N = 6): 1 n (%) | TEAE: Somnolence (healthy volunteers; single oral 1600 mg, N = 6): 1 n (%) | Total number of TEAEs (healthy volunteers; single oral 1600 mg, N = 6): 10 n (%) | Number of subjects with ≥1 TEAE (healthy volunteers; single oral 2400 mg, N = 6): 3 (50.0) n (%) | TEAE: Dermatitis contact (healthy volunteers; single oral 2400 mg, N = 6): 1 n (%) | TEAE: Headache (healthy volunteers; single oral 2400 mg, N = 6): 1 n (%) | TEAE: Nausea (healthy volunteers; single oral 2400 mg, N = 6): 2 n (%) | TEAE: Vomiting (healthy volunteers; single oral 2400 mg, N = 6): 1 n (%) | Total number of TEAEs (healthy volunteers; single oral 2400 mg, N = 6): 5 n (%) | Vitals, labs, and ECG findings (healthy volunteers; single oral doses 150-2400 mg): unremarkable | maximally tolerated dose (healthy volunteers; single oral doses 150-2400 mg): not reached | safety and tolerability (healthy volunteers; single oral doses 150-2400 mg): well tolerated, with no serious adverse events, and no discontinuations due to adverse events | severity of adverse events (healthy volunteers; single oral doses 150-2400 mg): mild | safety and tolerability (healthy volunteers; single oral doses 150-2400 mg, listed as compound A): generally safe and well tolerated | BPRS+ and CADSS scores (healthy volunteers; single oral doses 150-2400 mg, vs placebo): comparable as between the treatment groups | onset of effect on key neurotransmitter turnover (GABA, histamine, serotonin, dopamine) ([1]; CSF, single oral 2400 mg): within two hours of treatment | duration of effect on key neurotransmitter turnover ([1]; CSF, single oral 2400 mg, post-dose): 36 h | 1-methyl-4-imidazoleacetate, CSF, ratio relative to baseline ([1]; 1 h post-dose): 1.08 | Carboxyethyl-GABA, CSF, ratio relative to baseline ([1]; 1 h post-dose): 1.12 | Homovanillate (HVA), CSF, ratio relative to baseline ([1]; 1 h post-dose): 1.08 | Hydroxyindoleacetic acid (HIAA), CSF, ratio relative to baseline ([1]; 1 h post-dose): 1.09 | 1-methyl-4-imidazoleacetate, CSF, ratio relative to baseline ([1]; 2 h post-dose): 1.35* | Carboxyethyl-GABA, CSF, ratio relative to baseline ([1]; 2 h post-dose): 1.29* | Homovanillate (HVA), CSF, ratio relative to baseline ([1]; 2 h post-dose): 1.41* | Hydroxyindoleacetic acid (HIAA), CSF, ratio relative to baseline ([1]; 2 h post-dose): 1.28* | 1-methyl-4-imidazoleacetate, CSF, ratio relative to baseline ([1]; 4 h post-dose): 1.52* | Carboxyethyl-GABA, CSF, ratio relative to baseline ([1]; 4 h post-dose): 1.38* | Homovanillate (HVA), CSF, ratio relative to baseline ([1]; 4 h post-dose): 1.56* | Hydroxyindoleacetic acid (HIAA), CSF, ratio relative to baseline ([1]; 4 h post-dose): 1.1* | 1-methyl-4-imidazoleacetate, CSF, ratio relative to baseline ([1]; 8 h post-dose): 1.47* | Carboxyethyl-GABA, CSF, ratio relative to baseline ([1]; 8 h post-dose): 1.38* | Homovanillate (HVA), CSF, ratio relative to baseline ([1]; 8 h post-dose): 1.3* | Hydroxyindoleacetic acid (HIAA), CSF, ratio relative to baseline ([1]; 8 h post-dose): 1.22 | 1-methyl-4-imidazoleacetate, CSF, ratio relative to baseline ([1]; 12 h post-dose): 1.56* | Carboxyethyl-GABA, CSF, ratio relative to baseline ([1]; 12 h post-dose): 1.4* | Homovanillate (HVA), CSF, ratio relative to baseline ([1]; 12 h post-dose): 1.46* | Hydroxyindoleacetic acid (HIAA), CSF, ratio relative to baseline ([1]; 12 h post-dose): 1.21 | 1-methyl-4-imidazoleacetate, CSF, ratio relative to baseline ([1]; 24 h post-dose): 1.33* | Carboxyethyl-GABA, CSF, ratio relative to baseline ([1]; 24 h post-dose): 1.24* | Homovanillate (HVA), CSF, ratio relative to baseline ([1]; 24 h post-dose): 1.34* | Hydroxyindoleacetic acid (HIAA), CSF, ratio relative to baseline ([1]; 24 h post-dose): 1.21* | 1-methyl-4-imidazoleacetate, CSF, ratio relative to baseline ([1]; 36 h post-dose): 1.75* | Carboxyethyl-GABA, CSF, ratio relative to baseline ([1]; 36 h post-dose): 1.22* | Homovanillate (HVA), CSF, ratio relative to baseline ([1]; 36 h post-dose): 1.41* | Hydroxyindoleacetic acid (HIAA), CSF, ratio relative to baseline ([1]; 36 h post-dose): 1.28* | NMDA receptor modulation / antagonist activity [2]: not associated with N-methyl-D-aspartate (NMDA) receptor modulation; also recorded: did not demonstrate NMDA antagonist activity
